Assay results reported in patent US6214801A, “Imidazo[1,2-a]pyridine C-nucleosides as antiviral agents” (The Regents of the University of Michigan, priority 1999, dated 2001).
Where two headings read alike, the source gives them in different places.

Columns and labels:
[1] = tested on: HCMV; details: background; cited from earlier work
[2] = tested on: HCMV; assay: HCMV plaque (focus) reduction assay in HFF cells; type: cell-based; details: for IC50: Human betaherpesvirus 5, HFF cells, 7 to 10 days, read-out: 50% Inhibitory Concentration IC50, Antiviral Activity, HCMV (plaque assay in HFF cells); for antiviral activity (in words): Table 5
Procedure: (§1) KB cells (available from the American Type Culture Collection (ATCC) 12301 Parklawn Drive, […], Md. 20852 (ATCC CCL 17)), an established human cell line derived from an epidermal oral carcinoma, were grown in minimal essential medium (MEM) (Sigma) with Hanks salts (MEM(H)) supplemented with 5% fetal calf serum. Human foreskin fibroblasts (HFF cells) (provided by the University of Michigan Hospital) and African green monkey kidney cells (BSC-1) (ATTC CCL 26) cells were grown in MEM with Earl salts (MEM(E)) supplemented with 10% fetal bovine serum. Cells were passaged according to conventional procedures and as described in Shipman, C., Jr. et al. (1976) Antimicrob. Agents Chemother. Vol. 9:120 and incorporated herein by reference. Briefly, cells were passaged at 1:2 to 1:10 dilutions according to conventional procedures by using 0.05% trypsin plus 0.02% EDTA in a HEPES buffered salt solution. HFF cells were passaged onlv at 1:2 dilutions.
(§2) A plaque purified isolate, Po, of the Towne strain of HCMV was used in all experiments and was a gift of Dr. Mark Stinski, University of Iowa. The KOS strain of HSV-1 was used and was provided by Dr. Sandra K. Weller, University of Connecticut. Stock preparations of HCMV and HSV-1 were prepared and titered as known to those of skill and the art and described in Turk, S. R. et al. (1987) Antimicrob. Agents Chemother. Vol. 31:544-550 and Shipman, C., Jr., et al. (1990) J. Virol. Methods Vol. 28:101-106, each incorporated herein by reference.
Stock HCMV was prepared by infecting HFF cells at a multiplicity of infection (m.o.i.) of less that 0.01 plaque-forming units (p.f.u.) per cell. Cell growth medium was changed every four days until cytopathology was evident in all cells (approximately 21 days). Supernatant fluids were retained as the virus stock. Four days later, the remaining cells were disrupted by three cycles of freeze-thawing and the cell plus medium held as an additional source of virus. Storage was in liquid nitrogen.
HCMV was titered in 24-well cluster dishes which were plated to contain 5×10^4 HFF cells/well, grown as described above. When the cells were 70 to 80% confluent, 0.2 ml of the virus suspension was added per well and adsorbed as described above. At least three ten-fold dilutions of each preparation were used. Following virus adsorption, the cell sheets were overlayed with 0.5% methocel (4000 CPS) in maintenance medium [MEM(E) with 1.1 g/liter NaHCO3, 100 units/ml penicillin G, 100 μg/ml streptomycin, and 5% fetal bovine serum]. The cultures were incubated in a humidified atmosphere of 4% CO2 -96% air. Viral plaques were visible 5 to 7 days after infection using at least 10-fold magnification. Cells were fixed and stained by a 10-minute exposure to a 0.1% solution of crystal violet in 20% methanol 7 to 12 days after infection. Microscopic foci were enumerated at 20-fold magnification using a Nikon Profile Projector.
(§3) HCMV plaque reduction experiments were performed with monolayer cultures of HFF cells by a procedure similar to that referenced above for titration of the viruses and described in Devivar, R. V. et al. (1994) J. Med. Chem. Vol. 37:2942-2949. Activity of compounds against HSV-1 was evaluated using an ELISA assay.
The effect of compounds of the replication of HCMV was measured using a plaque (focus) reduction assay. For the former, HFF cells in 24-well culture dishes were infected with approximately 50 p.f.u. of HCMV per well using the procedures detailed above. Compounds dissolved in growth medium were added in four to six selected concentrations to duplicate wells following virus adsorption. Following incubation at 37 °C for 7 to 10 days, cell sheets were fixed, stained and microscopic plaques were enumerated as described above. Drug effects were calculated as a percentage of reduction in number of plaques in the presence of each drug concentration compared to the number observed in the absence of drug. […]

[3] = tested on: HSV-1; assay: HSV-1 ELISA assay; type: cell-based, herpes simplex virus type 1, KOS strain
Procedure: as §1, §2
Briefly, high titer HSV-1 stocks were prepared as follows. Nearly confluent monolayer cultures of KB cells were grown in 32 oz. glass bottles containing MEM(E) buffered with 25 mM HEPES and supplemented with 5% fetal bovine serum and 0.127 giliter L-arginine (VGM, virus growth medium). The cultures were infected at a low input multiplicity to reduce the formation of defective virus. After cell cytopathology reached "three to four plus", the cells were harvested by vigorous shaking, and concentrated by centrifugation (800×g for 5 min.). The resulting virus pools were stored at -760C until retrieved for use in experiments.
HSV-1 was titered using monolayer cultures of BSC-1 cells. Cells were planted at 3×10^5 cells/well using 6-well cluster dishes. MEM(E) supplemented with 10% fetal bovine serum was employed as medium. After 22-24 h, cells were 90% confluent and were inoculated in triplicate using at least three ten-fold dilutions with 0.2 ml of the virus suspension to be assayed and incubated in a humidified 4% CO2 -[…] atmosphere for one hour to permit viral adsorption. Following virus adsorption, the cell sheet was overlayed with 5 ml of MEM(E) with 5% serum plus 0.5% methocel (4000 CPS) and incubated an additional two to three days. Cells were fixed and stained with 0.1% crystal violet in 20% methanol and macroscopic plaques enumerated.
as §3
ELISA techniques according to standard procedures were also used to determine activity against HSV-1. Drug effects were calculated as a percentage of the reduction in virus titers in the presence of each drug concentration compared to the titer obtained in the absence of drug. Ganciclovir was used as a positive control in all experiments.

[4] = in vitro; type: cell-based, human; details: human, hff cells
Procedure: as §1
(§4) Two different methods were used to evaluate cytotoxicity of the compounds. First, cytotoxicity produced in stationary HFF cells was determined by microscopical examination of cells not affected by the virus used in the plaque assay. Second the effect of compounds on KB cells during two population doubling times was determined by crystal violet staining and spectrophotometric quantitation of dye eluted from stained cells. This method has been utilized for the analysis of ganciclovir and zidovudine (See Prichard, M. N. et al. Antiviral Res. (1991) Vol. 35:1060-1065).

[5] = Growth cytotoxicity in KB cells (crystal violet staining); type: cell-based; details: human, two population doubling times, read-out: 50% Inhibitory Concentration IC50, Cytotoxicity, Growth (KB cells)
Procedure: as §1, §4

[6] = Growth cytotoxicity in CEM cells; type: cell-based; details: human, read-out: 50% Inhibitory Concentration IC50, Cytotoxicity, Growth (CEM cells)
Procedure: (§5) CEM cells and strain IIIB of HIV-1 were obtained through courtesy of Dr. Louis S. Kurcera, Boman Gray School of Medicine, Wake Forest University. CEM cells were grown in suspension culture and passaged through conventional procedures.

[7] = tested on: HIV-1; assay: HIV-1 replication, reverse transcriptase (RT) assay in CEM cells; type: cell-based, HIV-1 strain IIIB; details: Table 6
Procedure: as §5
The activity of compounds against HIV-1 replication was determine by using reverse transcriptase (RT) as a marker for HIV-1. Strain IIIB of HIV-1 was grown in CEM cells maintained in suspension culture as detailed previously (see Kucera et al. AIDS Res. Human Retroviruses, 1993, Vol. 9, pp. 307-314). The assay measured the presence of HIV in supernatants of infected CEM cells by determining the amount of RT activity. Cells were grown, infected with HIV-1, and incubated in the presence of seven concentrations (one-half log10 dilutions) of the test compounds beginning at 1 or 100 μM concentration, depending on the compound to be assayed. Procedures and the RT assay were performed as detailed previously (see White et al., Antiviral Res. 1991, Vol. 16, pp. 257-266).

[8] = tested on: HFF cells; assay: in vitro; type: cell-based, human
Procedure: as §1, §4

[9] = Human alphaherpesvirus 1; read-out: 50% Inhibitory Concentration IC50, Antiviral Activity, HSV-1 (ELISA assay)

Row | Compound | antiviral activity of known compounds (in words) [1] | IC50 [2] [µM] | IC50 [3, 9] [µM] | CC50 [4] [µM] | CC50 [5] [µM] | CC50 [6] [µM] | HIV-1 antiviral activity (in words) [7] | antiviral activity (in words) [2] | IC50 ([3]; Human alphaherpesvirus 1, read-out: 50% Inhibitory Concentration IC50, Antiviral Activity, HSV-1 (ELISA assay)) [µM] | cytotoxicity (in words) [8]
1 | OC[C@H]1O[C@@H](n2c(Br)nc3cc(Cl)c(Cl)cc32)[C@H](O)[C@@H]1O [BDCRB, 2-bromo-5,6-dichloro-1-(2'-β-D-ribofuranosyl)-benzimidazole] | useful against HCMV infections | – | – | – | – | – | – | – | – | –
2 | OC[C@H]1O[C@H](c2c(Cl)c(Cl)cc3nc(Cl)cn23)[C@H](O)[C@@H]1O [Compound 43, 2,6,7-Trichloro-5-(α-D-ribofuranosyl)imidazo[1,2-a]pyridine] | – | > 100 | > 100 | > 100 | > 100 | – | – | – | – | –
3 | Clc1cc2nc(Cl)c(C3C=CCO3)n2cc1Cl (racemic) [Compound 26, 2,6,7-Trichloro-3-(2',3'-dideoxy-2',3'-didehydro-β-D/ L-erythro-furanosyl)-imidazo[1,2-a]pyridine] | – | 32 | > 100 | 222 | > 100 | > 100 | – | – | – | –
4 | Clc1cn2cc(Cl)c(Cl)c(Cl)c2n1 [Compound 18, 2,6,7,8-Tetrachloro-imidazo[1,2-a]pyridine] | – | > 100 | > 100 | > 100 | > 100 | – | – | – | – | –
5 | Nc1nc(O)c2ncn(COC(CO)CO)c2n1 [DHPG, ganciclovir, reference compound] | – | 7.4 | – | > 100 | – | – | – | – | – | –
6 | OC[C@H]1O[C@@H](c2c(Cl)c(Cl)cc3nc(Cl)cn23)[C@H](O)[C@@H]1O [Compound 42, 2,6,7-Trichloro-5-(β-D-ribofuranosyl)imidazo[1,2-a]pyridine] | – | > 100 | > 100 | > 100 | > 100 | – | – | – | – | –
7 | 5-(5'-O-[(tert-Butyl)dimethylsilyl]-2',3'-O-isopropylidene-β-D-ribofuranosyl)-imidazo[1,2-a]pyridine [Compound 44] | – | – | – | – | – | – | HIV-1 antiviral activity at non-cytotoxic concentrations | – | – | –
8 | O[C@@H]1[C@H](O)CO[C@H]1c1c(Cl)nc2cc(Cl)c(Cl)cn12 [Compound -28, 2,6,7-Trichloro-3-(β-D-erythrofuranosyl)imidazo[1,2-a]pyridine] | – | > 100 | > 100 | > 100 | > 100 | – | – | – | – | –
9 | O[C@@H]1[C@@H](c2c(Cl)nc3cc(Cl)c(Cl)cn23)OC[C@@H]1O [Compound +28, 2,6,7-Trichloro-3-(β-L-erythrofuranosyl)imidazo[1,2-a]pyridine] | – | > 100 | > 100 | > 100 | > 100 | – | – | – | – | –
10 | Clc1ccc2nc(Cl)cn2c1 [Compound 12, 2,6-Dichloro-imidazo[1,2-a]pyridine] | – | > 100 | > 100 | > 100 | > 100 | – | – | – | – | –
11 | Clc1ccn2cc(Cl)nc2c1 [Compound 15, 2,7-Dichloro-imidazo[1,2-a] pyridine] | – | > 100 | > 100 | > 100 | > 100 | – | – | – | – | –
12 | OC[C@H]1O[C@@H](c2cccc3nccn23)[C@H](O)[C@@H]1O [Compound 45, 5-(β-D-Ribofuranosyl)imidazo[1,2-a]pyridine] | – | > 100 | > 100 | > 100 | > 100 | – | – | – | – | –
13 | OC[C@H]1O[C@H](c2c(Cl)ccc3nc(Cl)cn23)[C@H](O)[C@@H]1O [Compound 38, 2,6-Dichloro-5-(α-D-ribofuranosyl)imidazo[1,2-a]pyridine] | – | > 100 | > 100 | > 100 | > 100 | – | – | – | – | –
14 | Clc1cn2cc(Cl)c(Cl)cc2n1 [Compound 16, 2,6,7-Trichloro-imidazo[1,2-a]pyridine] | – | > 100 | > 100 | > 100 | > 100 | – | – | – | – | –
15 | OC[C@H]1O[C@@H](c2c(Cl)ccc3nc(Cl)cn23)[C@H](O)[C@@H]1O [Compound 36, 2,6-Dichloro-5-(β-D-ribofuranosyl)imidazo[1,2-a]pyridine] | – | > 100 | > 100 | > 100 | > 100 | – | – | – | – | –
16 | O[C@H]1[C@@H](O)CO[C@H]1c1c(Cl)nc2cc(Cl)c(Cl)cn12 [Compound -29, 2,6,7-dichloro-3-(α-L-erythrofuranosyl)imidazo[1,2-α]pyridine] | – | 17 | > 100 | > 100 | > 100 | – | – | – | – | –
17 | O[C@@H]1[C@H](O)CO[C@@H]1c1c(Cl)nc2cc(Cl)c(Cl)cn12 [Compound +29, 2,6,7-trichloro-3-(α-D-erythrofuranosyl)imidazo[1,2-α]pyridine] | – | 4.9 | – | > 100 | > 100 | – | – | excellent antiviral activity | 80 | very low cytotoxicity
18 | O[C@H]1[C@@H](O)CO[C@H]1c1c(Cl)nc2cc(Cl)c(Cl)cn12 [Compound -29] | – | – | – | – | – | – | – | excellent antiviral activity | – | very low cytotoxicity
